The IC50 is the concentration that inhibits the measured activity by half. Low readings indicate greater potency in that assay, high ones weaker potency in that assay.

Consider one compound from US20140121240A1, “NOVEL PHARMACEUTICAL COMPOSITION” (MARUHO CO., LTD., priority 2011, published 2014).

Marks after values point to notes of the source that are not given here.

Series [1] concerns spontaneous locomotor activity. Nature of the series: Effect on spontaneous locomotor activity (Experiment 3 (2)). The series is classed as in vivo, mouse. As to conditions: for Spontaneous locomotor activity (Mean): measured from 1 h after administration. The procedure: (2) [Effect of Test Compound on Spontaneous Locomotor Activity] The same solution (50 μL) of test compound or a vehicle (50 μL) as described in the above-mentioned (1) was administered onto right dorsal neck of ICR female mice similarly pre-treated as described in Experiment 1. After one hour of the administration of the test compound solution or vehicle, these animals were placed into an apparatus for measuring spontaneous locomotor activity (SCANET, Melquest Ltd.), and their locomotor activity was measured for 30 minutes.

The test system of a further series is PDE4. The experiment in a line: PDE4 inhibitory activity measured by a conventional manner. It counts as biochemical. On the procedure:
(§1) Ratio of inhibition rate on scratching behavior of each test compound to that of Compound A was calculated as antipruritic activity (%). For reference, PDE4 inhibitory activity of each compound (IC50) which was measured by a conventional manner is also shown in such Table.

Series [2] relates to pruritogen-induced scratching behavior. The experiment in a line: Antipruritic effect on pruritogen-induced scratching model (Experiment 1). The settings on record: for Counts of scratching (Mean): 3% w/v in acetone 50 μL topical 1 h before, ICR female mouse. The series is classed as in vivo, mouse. The text has this: [Antipruritic Effect of Test Compound on Pruritogen-Induced Scratching Model]
For the purpose of measuring scratching behavior (counts of scratching), a cylindrical magnet (diameter: 1 mm, length: 3 mm) was implanted into instep of right hindlimb of each mouse (ICR female mouse, 6 weeks old; Charles River Laboratories, Japan Inc.) under anesthesia at least three days before testing, and hair on her right dorsal neck was removed by a shaver under anesthesia the day before testing. After topical administration of a solution of test compound in acetone (3% w/v solution of 1-[2-(4S)-4-hydroxy-1,2,3,4-tetrahydroquinolin-1-yl]-4-pyridyl]-2,3-bis(dihydroxymethyl)-6,7-dimethoxynaphthalene sesquihydrate, as hereinafter referred to as Compound A, in acetone; 50 μL) or a vehicle (acetone; 50 μL) to the right dorsal neck of the above-treated mouse, these mice were placed into a testing apparatus (MicroAct, Neuroscience Inc.). After one hour of the administration of the above-mentioned solution, to the right dorsal neck of each mouse was intradermally administered a solution (50 μL) of a pruritogen in saline [histamine: 300 nmol/50 μL, U-46619 (chemical name: 9,11-dideoxy-9α,11α-methanoepoxyprosta-5Z,13E-dien-1-oic acid, Cayman Chemical Company): 10 nmol/50 μL, Compound 48/80 (Sigma): 3 μg/50 μL, serotonin (Sigma): 100 nmol/50 μL, or Substance P (Peptide Institute Inc.): 300 nmol/50 μL] or saline. Immediately after the administration, scratching behavior (counts of scratching) was measured for 30 minutes by MicroAct.

Series [3] has as its system histamine-induced scratching behavior. The experiment in a line: Antipruritic effect in histamine-induced scratching model (Experiment 2). It counts as in vivo, mouse. On the procedure:
[Antipruritic Effect of Test Compound in Histamine-Induced Scratching Model]
After topical administration of a 3% w/v solution of a test compound or a reference compound as described in the following Table 6 in acetone (50 μL) or a vehicle (acetone; 50 μL) onto right dorsal neck of ICR female mice similarly pre-treated as described in Experiment 1, these animals were placed into a testing apparatus (MicroAct). After one hour of the administration of said compound solution or vehicle, a solution (50 μL) of histamine in saline (300 nmol/50 μL) or saline (50 μL) was intradermally administered to right dorsal neck of each mouse. Immediately after the administration, scratching behavior (counts of scratching) was measured for 30 minutes by MicroAct.
Inhibition rate on scratching behavior of each test compound was evaluated in terms of the following formula based on the counts of scratching in the test group in which each test compound solution was administered followed by administration of a histamine solution in saline (counts of scratching in compound-treated group), and the counts of scratching in the test group in which a vehicle (acetone) was administered followed by administration of a histamine solution in saline (counts of scratching in vehicle-treated group).
as §1

Series [4] deals with oxazolone-induced inflammatory reactions of right ear auricle. The experiment in a line: Chronic oxazolone-induced dermatitis model: ear auricle thickness (Experiment 4). The settings on record: Compound A 1%, Tacrolimus 0.1%, Dexamethasone 0.01% w/v in 0.25% oxazolone. It counts as in vivo, mouse. The procedure:
[Antipruritic Effect of Test Compound in Chronic Oxazolone-Induced Dermatitis Model]
A magnet for measurement was implanted into an instep part of right hindlimb of BALB/c male mouse (fed for one week from five-week old; Charles River Laboratories, Japan Inc.) under anesthesia, and on the same day, sensitization was carried out by topically administering 0.5% w/v solution (10 μL) of oxazolone in acetone respectively onto the both sides of right ear auricle of the animal (sensitization day). On each point of the 7th, 9th, 11th, 14th and 16th day reckoned from the day after the sensitization (1st day), each mouse was challenged by topical administration of a 10 μL solution of test compound [acetone (vehicle-treated group), 0.25% w/v solution of oxazolone in acetone (oxazolone-treated group), or a test compound solubilized in 0.25% w/v oxazolone solution in acetone (test compound-treated group)] onto the both sides of right ear auricle of the animal to produce inflammatory reactions. Immediately after the administration, scratching behavior (counts of scratching) was measured for two hours by MicroAct. Thickness of right ear auricle of each mouse was measured by a thickness gauge before and 24 hours after the topical administration of each test compound solution. The percentage described in the Table means “% w/v”.

Turning to `COc1cc2cc(CO)c(CO)c(-c3ccnc(N4CC[C@H](O)c5ccccc54)c3)c2cc1OC` [Compound A, 1-[2-(4S)-4-hydroxy-1,2,3,4-tetrahydroquinolin-1-yl]-4-pyridyl]-2,3-bis(dihydroxymethyl)-6,7-dimethoxynaphthalene sesquihydrate], the “Spontaneous locomotor activity (Mean)” value in series [1] (0.3% w/v in acetone 50 μL topical) is given as 5814 counts/30 min; in series [1] (1% w/v in acetone 50 μL topical), 5779 counts/30 min; in series [1] (3% w/v in acetone 50 μL topical), 6260 counts/30 min. Also, the “spontaneous locomotor activity lowering effect at a dose producing antipruritic effect, result in words” value in series [1] (Compound A 3% w/v, cipamfylline 0.3% w/v) is on record as “did not show spontaneous locomotor activity lowering effect”. Also, it took 3 nM to reach half-maximal inhibition in the series with PDE4 (IC50). In series [2] (3% w/v topical, all pruritogens of Tables 1 to 5), the “pruritogen-induced scratching behavior (counts of scratching), result in words” value is recorded as “significantly inhibited”. Also, the “Counts of scratching (Mean)” value in series [2] (pruritogen Compound 48/80 3 μg/50 μL intradermal, n = 15) came out at 521 beats/30 min; in series [2] (pruritogen Substance P 300 nmol/50 μL intradermal, n = 15) it was 777 beats/30 min; in series [2] (pruritogen U-46619 10 nmol/50 μL intradermal, n = 15) it was 1069 beats/30 min; in series [2] (pruritogen histamine 300 nmol/50 μL intradermal, n = 11) it was 365 beats/30 min; in series [2] (pruritogen serotonin 100 nmol/50 μL intradermal, n = 10) it was 841 beats/30 min. Besides, the “Antipruritic activity (ratio of inhibition rate on scratching behavior to that of Compound A)” value in series [3] (3% w/v in acetone 50 μL topical 1 h before histamine 300 nmol/50 μL, ICR female mice, counts for 30 minutes) is reported as 100%. For the same compound, the “antipruritic effect in histamine-induced scratching model, result in words” value in series [3] (3% w/v topical, histamine 300 nmol/50 μL) is on record as “remarkable antipruritic effect”. Besides, the “Ear auricle thickness (Mean)” value was 0.35 mm in series [4] (7th day); 0.44** mm in series [4] (8th day); 0.39** mm in series [4] (9th day); 0.46** mm in series [4] (10th day); 0.44** mm in series [4] (11th day); 0.48** mm in series [4] (12th day). Also, the “Ear auricle thickness (Mean)” value in series [4] (14th day) was 0.44** mm; in series [4] (15th day), 0.54** mm; in series [4] (16th day), 0.47** mm; in series [4] (17th day), 0.50** mm; in series [4] (sensitization day, BALB/c male mouse), 0.27 mm.
